In article PMC3365829 (ACS medicinal chemistry letters, 2012) one finds clearance data, which are given here for 1 compound.

The series in a line: In vivo pharmacokinetics in mice. The conditions noted are these: mouse, iv, 3 mg/kg.

The compound `CCCCNc1ncc2c(-c3ccc(F)cc3)nn(C[C@H]3CC[C@H](N)CC3)c2n1` [Compound 43] gave a clearance of 1.17 L/h/kg.
